Like-named read-outs stand apart in the source and are kept apart here.
Legend:
Type in all cases: cell-based
HepG2 cells = assay: CellTiter-Glo cell viability
Description: (§1) Cells were plated in 384-well plates (typically 1,500 cells per well) with varying concentrations of compounds, with a total volume of 50 μl per well. CTG reagent was added (25 μl) to the solutions, mixed and read out using an EnVision 2105 multimode plate reader.

Huh7 cells = assay: CellTiter-Glo cell viability
Description: as §1

MFE296 cells = assay: CellTiter-Glo cell viability
Description: as §1

MCF7 cells = assay: CellTiter-Glo cell viability
Description: as §1

NUGC-3 cells = assay: CellTiter-Glo cell viability; details: NUGC3
Description: as §1

DU145 cells = assay: CellTiter-Glo cell viability
Description: as §1

[1] = CellTiter-Glo cell viability; details: human, read-out: mean_norm (normalized viability)
Description: as §1

LNCaP cells = assay: CellTiter-Glo cell viability; details: for mean_norm (normalized viability): LNCAP, 4 day
Description: as §1

[2] = tested on: PLK1 targets (cyclin B1, phospho-PLK-binding motif) in parental 293T cells; assay: western blot for PLK1 targets; details: 8.5 h, double thymidine block
Description: (§2) Cells were split into a 10-cm dish at low confluency (20%) and grown overnight. Cells were synchronized with double thymidine block. Cells were treated with thymidine (2 mM) overnight and released into fresh medium for 8.5 h and then retreated with thymidine (2 mM) overnight. Cells were split into a six-well plate and released into medium containing compound for 8.5 h. Cells were pelleted and protein lysates were created using RIPA buffer containing Halt phosphatase and protease inhibitor (Thermo Fisher, 78440). Lysates were clarified by centrifugation (21,000g for 15 min) and the supernatant was denatured in 1× Lamelli buffer containing DTT by heating at 95 °C for 5 min. The resulting protein was loaded onto a Tris–acetate gel, transferred onto a PVDF membrane and treated with primary antibodies: cyclin B1 (D5C10, Cell Signaling Technologies, 12231T; 1:1,000) and phospho-PLK-binding motif (D73F6, Cell Signaling Technologies, 5243T; 1:1,000). The membrane was stained with IRDye 800CW goat anti-rabbit IgG secondary antibody (Licor Biosciences; 1:20,000) and imaged on an Odyssey DLx.

[3] = tested on: PLK1 targets (cyclin B1, phospho-PLK-binding motif) in Halo–p53-Y220C ΔTAD–mCherry 293T cells; assay: western blot for PLK1 targets; details: 8.5 h, double thymidine block
Description: as §2

[4] = tested on: 293T cells stably expressing Halo–p53-Y220C ΔTAD–mCherry versus parental 293T cells; assay: crystal violet staining; details: 5 days
Description: The 293T cells were plated in six-well or 12-well plates at low density (~10% confluence) and treated with compound for the indicated duration. Cells were rinsed once with PBS and then stained with crystal violet (0.5% m/v) in 20% methanol–water for 10 min. Cells were washed with water five times and air-dried overnight.

[5] = tested on: PLK1 and p53-Y220C localization in cotransfected 293T cells; assay: colocalization assay, live-cell imaging; details: nonmitotic cells
Description: The 293T cells were seeded in six-well plates and cotransfected with Halo–p53-Y220C ΔTAD–mCherry and mEGFP–PLK1–SmBiT (1:1). After 1 day, the cells were passaged into 96-well plates in FluoroBrite DMEM for microscopy. The cells were imaged with the Opera Phenix Plus high-content screening system (PerkinElmer) before compound treatment and as a time series following compound treatment.

[6] = Homo sapiens, 96 h, 4 day treatment

## CC[C@@H]1C(=O)N(C)c2cnc(Nc3ccc(C(=O)NCCOCCOCCOCCOCCC(=O)N4CCC(Nc5cccc6c5cc(C#CCNc5ccc(S(C)(=O)=O)cc5OC)n6CC(F)(F)F)CC4)cc3OC)nc2N1C1CCCC1 [p53-01, PMV6-PEG4-BI2536]
HepG2 cells
  p5301_AUC_to_10uM: 0.9503
HepG2 cells; Concentration 39.0625, 4 day
  mean_norm (normalized viability): 0.9684
HepG2 cells; Concentration 78.125, 4 day
  mean_norm (normalized viability): 0.9673
HepG2 cells; Concentration 156.25, 4 day
  mean_norm (normalized viability): 0.8732
HepG2 cells; Concentration 312.5, 4 day
  mean_norm (normalized viability): 0.9657
HepG2 cells; Concentration 625, 4 day
  mean_norm (normalized viability): 0.8895
HepG2 cells; Concentration 1250, 4 day
  mean_norm (normalized viability): 0.9491
HepG2 cells; Concentration 2500, 4 day
  mean_norm (normalized viability): 0.8943
HepG2 cells; Concentration 5000, 4 day
  mean_norm (normalized viability): 1.008
HepG2 cells; Concentration 10000, 4 day
  mean_norm (normalized viability): 0.9189
HepG2 cells; Concentration 20000, 4 day
  mean_norm (normalized viability): 0.9567
HepG2 cells; [6]
  IC50: > 20 µM
Huh7 cells
  p5301_AUC_to_10uM: 1
Huh7 cells; Homo sapiens, Huh-7, 96 h, 4 day treatment
  IC50: > 20 µM
MFE296 cells
  p5301_AUC_to_10uM: 0.5186
MFE296 cells; Concentration 39.0625, 4 day
  mean_norm (normalized viability): 1.0133
MFE296 cells; Concentration 78.125, 4 day
  mean_norm (normalized viability): 1.079
MFE296 cells; Concentration 156.25, 4 day
  mean_norm (normalized viability): 1.012
MFE296 cells; Concentration 312.5, 4 day
  mean_norm (normalized viability): 1.043
MFE296 cells; Concentration 625, 4 day
  mean_norm (normalized viability): 0.9978
MFE296 cells; Concentration 1250, 4 day
  mean_norm (normalized viability): 0.7559
MFE296 cells; Concentration 2500, 4 day
  mean_norm (normalized viability): 0.6581
MFE296 cells; Concentration 5000, 4 day
  mean_norm (normalized viability): 0.4955
MFE296 cells; Concentration 10000, 4 day
  mean_norm (normalized viability): 0.246
MFE296 cells; Homo sapiens, MFE-296, 96 h, 4 day treatment
  IC50: 4.32 µM
MCF7 cells
  p5301_AUC_to_10uM: 0.5585
MCF7 cells; Concentration 39.0625, 4 day
  mean_norm (normalized viability): 1.014
MCF7 cells; Concentration 78.125, 4 day
  mean_norm (normalized viability): 0.9684
MCF7 cells; Concentration 156.25, 4 day
  mean_norm (normalized viability): 0.9955
MCF7 cells; Concentration 312.5, 4 day
  mean_norm (normalized viability): 1.001
MCF7 cells; Concentration 625, 4 day
  mean_norm (normalized viability): 0.97
MCF7 cells; [6]
  IC50: 2.81 µM
NUGC-3 cells; Homo sapiens, NUGC-3, 96 h, 4 day treatment
  IC50: 1.71 µM
NUGC-3 cells
  p5301_AUC_to_10uM: 0.5108
DU145 cells
  p5301_AUC_to_10uM: 0.9088
DU145 cells; Homo sapiens, DU-145, 96 h, 4 day treatment
  IC50: > 20 µM
[1]; DU145 cells, Concentration 39.0625, 4 day
  viability at 4 day: 104%
[1]; DU145 cells, Concentration 78.125, 4 day
  viability at 4 day: 101%
[1]; DU145 cells, Concentration 156.25, 4 day
  viability at 4 day: 97.4%
[1]; DU145 cells, Concentration 312.5, 4 day
  viability at 4 day: 96.2%
[1]; DU145 cells, Concentration 625, 4 day
  viability at 4 day: 97.2%
[1]; DU145 cells, Concentration 1250, 4 day
  viability at 4 day: 98.7%
[1]; DU145 cells, Concentration 2500, 4 day
  viability at 4 day: 98.2%
[1]; DU145 cells, Concentration 5000, 4 day
  viability at 4 day: 91.3%
[1]; DU145 cells, Concentration 10000, 4 day
  viability at 4 day: 79.5%
[1]; DU145 cells, Concentration 20000, 4 day
  viability at 4 day: 76.4%
[1]; Huh7 cells, Concentration 39.0625, 4 day
  viability at 4 day: 110%
[1]; Huh7 cells, Concentration 78.125, 4 day
  viability at 4 day: 104%
[1]; Huh7 cells, Concentration 156.25, 4 day
  viability at 4 day: 109%
[1]; Huh7 cells, Concentration 312.5, 4 day
  viability at 4 day: 104%
[1]; Huh7 cells, Concentration 625, 4 day
  viability at 4 day: 108%
[1]; Huh7 cells, Concentration 1250, 4 day
  viability at 4 day: 104%
[1]; Huh7 cells, Concentration 2500, 4 day
  viability at 4 day: 107%
[1]; Huh7 cells, Concentration 5000, 4 day
  viability at 4 day: 100%
[1]; Huh7 cells, Concentration 10000, 4 day
  viability at 4 day: 102%
[1]; Huh7 cells, Concentration 20000, 4 day
  viability at 4 day: 83.1%
[1]; LNCaP cells, LNCAP, Concentration 39.0625, 4 day
  viability at 4 day: 96.3%
[1]; LNCaP cells, LNCAP, Concentration 78.125, 4 day
  viability at 4 day: 93%
[1]; LNCaP cells, LNCAP, Concentration 156.25, 4 day
  viability at 4 day: 94.9%
[1]; LNCaP cells, LNCAP, Concentration 312.5, 4 day
  viability at 4 day: 97.9%
[1]; LNCaP cells, LNCAP, Concentration 625, 4 day
  viability at 4 day: 108%
[1]; LNCaP cells, LNCAP, Concentration 1250, 4 day
  viability at 4 day: 102%
[1]; LNCaP cells, LNCAP, Concentration 2500, 4 day
  viability at 4 day: 87.3%
[1]; MCF7 cells, Concentration 1250, 4 day
  viability at 4 day: 88.6%
[1]; MCF7 cells, Concentration 2500, 4 day
  viability at 4 day: 64.8%
[1]; MCF7 cells, Concentration 5000, 4 day
  viability at 4 day: 49.8%
[1]; MCF7 cells, Concentration 10000, 4 day
  viability at 4 day: 36.9%
[1]; MCF7 cells, Concentration 20000, 4 day
  viability at 4 day: 29.2%
[1]; NUGC-3 cells, NUGC3, Concentration 39.0625, 4 day
  viability at 4 day: 101%
[1]; NUGC-3 cells, NUGC3, Concentration 78.125, 4 day
  viability at 4 day: 98%
[1]; NUGC-3 cells, NUGC3, Concentration 156.25, 4 day
  viability at 4 day: 103%
[1]; NUGC-3 cells, NUGC3, Concentration 312.5, 4 day
  viability at 4 day: 98.2%
[1]; NUGC-3 cells, NUGC3, Concentration 625, 4 day
  viability at 4 day: 91.1%
[1]; NUGC-3 cells, NUGC3, Concentration 1250, 4 day
  viability at 4 day: 79.9%
[1]; NUGC-3 cells, NUGC3, Concentration 2500, 4 day
  viability at 4 day: 53.4%
[1]; NUGC-3 cells, NUGC3, Concentration 5000, 4 day
  viability at 4 day: 42.5%
[1]; NUGC-3 cells, NUGC3, Concentration 10000, 4 day
  viability at 4 day: 39.3%
[1]; NUGC-3 cells, NUGC3, Concentration 20000, 4 day
  viability at 4 day: 32.6%
LNCaP cells; Homo sapiens, 96 h, LNCaP, 4 day treatment
  IC50: 14.1 µM
LNCaP cells; Concentration 5000
  mean_norm (normalized viability): 0.7565
LNCaP cells; Concentration 10000
  mean_norm (normalized viability): 0.7384
LNCaP cells; Concentration 20000
  mean_norm (normalized viability): 0.4932
LNCaP cells; LNCaP
  p5301_AUC_to_10uM: 0.8069
[2]
  PLK1 substrates by western blot: not in parental cells
[3]
  PLK1 substrates by western blot: phenocopied BI2536
[4]
  crystal violet staining: differential antiproliferative activity
[5]
  protein localization: PLK1 nuclear enrichment and colocalization with p53-Y220C
